Source: US20230321123A1, “INHIBITORS OF PSEUDOMONAS AERUGINOSA VIRULENCE FACTOR LasB” (Helmholtz-Zentrum Für Infektionsforschung GmbH, priority 2020, published 2023)
Where two headings read alike, the source gives them in different places.

Assays:
[1] = Cytotoxicity A549; format: cell-based; settings: human
Method: (§1) The compounds of examples 1 and 5 were not toxic against the cell lines HepG2, HEK293 and A549 (Table 5). Additionally, the inhibitory effect against P. aeruginosa PA14 was evaluated to exclude an antibacterial effect of the compounds of the present invention. This is important as it was the aim to target virulence and not viability of the bacteria. […]

[2] = Cytotoxicity HepG2; format: cell-based; settings: human
Method: as §1

[3] = target: T1, MMP-2 (Homo sapiens, UniProt P08253); test: Selectivity against human off-targets: MMP-2; format: biochemical; settings: at 100 μM; read-out: Inhibition [%] MMP-2
T1 sequence (P08253 110-660): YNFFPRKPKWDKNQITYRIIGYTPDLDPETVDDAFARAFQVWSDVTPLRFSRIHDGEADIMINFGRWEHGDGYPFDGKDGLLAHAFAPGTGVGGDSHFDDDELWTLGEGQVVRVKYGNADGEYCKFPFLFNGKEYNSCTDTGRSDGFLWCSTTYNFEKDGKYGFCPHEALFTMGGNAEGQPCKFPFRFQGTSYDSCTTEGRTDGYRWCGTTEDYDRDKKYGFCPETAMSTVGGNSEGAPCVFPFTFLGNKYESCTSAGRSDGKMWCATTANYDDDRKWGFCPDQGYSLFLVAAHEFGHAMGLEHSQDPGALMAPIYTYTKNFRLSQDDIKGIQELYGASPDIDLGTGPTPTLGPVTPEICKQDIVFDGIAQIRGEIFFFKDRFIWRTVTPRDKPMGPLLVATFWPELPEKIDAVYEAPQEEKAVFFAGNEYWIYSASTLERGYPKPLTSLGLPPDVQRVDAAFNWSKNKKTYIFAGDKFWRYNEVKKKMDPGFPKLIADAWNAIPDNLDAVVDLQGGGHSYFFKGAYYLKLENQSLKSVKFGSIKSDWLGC
Text: (§2) The inhibition of zinc-containing human enzymes is described frequently for LasB inhibitors and poses a serious difficulty in the development of selective compounds. Particularly, the inhibition of matrix metalloproteases (MMPs) should be avoided. To further investigate this issue, three derivatives (the compounds of examples 1, 5 and 8) have been tested for their selectivity against several human off-targets, including six MMPs, ADAM17 (TACE), HDAC-3 and HDAC-8 (Table 4). The selectivity of the compounds is particularly high for MMPs and HDACs, whereas the inhibition of ADAM17 was considerably stronger.

[4] = target: T2, MMP-1 (Homo sapiens, UniProt P03956); test: Selectivity against human off-targets: MMP-1; format: biochemical; settings: at 100 μM; read-out: Inhibition [%] MMP-1
T2 sequence (P03956 100-469): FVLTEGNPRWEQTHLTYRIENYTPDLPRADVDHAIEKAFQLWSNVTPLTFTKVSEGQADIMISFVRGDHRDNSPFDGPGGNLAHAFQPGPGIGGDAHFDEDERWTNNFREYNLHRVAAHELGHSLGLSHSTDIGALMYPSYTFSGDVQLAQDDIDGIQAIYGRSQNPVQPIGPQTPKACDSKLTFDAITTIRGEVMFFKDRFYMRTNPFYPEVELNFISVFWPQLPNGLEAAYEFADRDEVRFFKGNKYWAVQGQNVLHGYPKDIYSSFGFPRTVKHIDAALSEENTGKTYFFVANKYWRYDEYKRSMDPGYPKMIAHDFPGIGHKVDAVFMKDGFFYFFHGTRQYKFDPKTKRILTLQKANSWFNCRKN
Text: as §2

[5] = target: LasB (Pseudomonas aeruginosa, UniProt Q02RJ6); test: biochemical; design: species or system P. aeruginosa
Chain of LasB (Q02RJ6 198-498): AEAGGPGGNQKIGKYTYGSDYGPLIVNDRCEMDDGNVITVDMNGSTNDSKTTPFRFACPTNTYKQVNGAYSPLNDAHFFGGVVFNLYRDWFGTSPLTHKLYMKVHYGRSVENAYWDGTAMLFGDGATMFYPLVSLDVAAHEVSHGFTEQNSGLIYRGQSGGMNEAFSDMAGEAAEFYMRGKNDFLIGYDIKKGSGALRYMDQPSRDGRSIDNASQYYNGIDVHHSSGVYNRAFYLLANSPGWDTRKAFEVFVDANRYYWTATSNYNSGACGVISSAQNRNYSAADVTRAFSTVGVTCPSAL

[6] = target: ADAM17 (TACE) (Homo sapiens, UniProt P78536); test: Selectivity against human off-targets: ADAM17 (TACE); format: biochemical; settings: for IC50: read-out: IC50 ADAM17 (TACE)
Chain of ADAM17 (TACE) (P78536 215-824): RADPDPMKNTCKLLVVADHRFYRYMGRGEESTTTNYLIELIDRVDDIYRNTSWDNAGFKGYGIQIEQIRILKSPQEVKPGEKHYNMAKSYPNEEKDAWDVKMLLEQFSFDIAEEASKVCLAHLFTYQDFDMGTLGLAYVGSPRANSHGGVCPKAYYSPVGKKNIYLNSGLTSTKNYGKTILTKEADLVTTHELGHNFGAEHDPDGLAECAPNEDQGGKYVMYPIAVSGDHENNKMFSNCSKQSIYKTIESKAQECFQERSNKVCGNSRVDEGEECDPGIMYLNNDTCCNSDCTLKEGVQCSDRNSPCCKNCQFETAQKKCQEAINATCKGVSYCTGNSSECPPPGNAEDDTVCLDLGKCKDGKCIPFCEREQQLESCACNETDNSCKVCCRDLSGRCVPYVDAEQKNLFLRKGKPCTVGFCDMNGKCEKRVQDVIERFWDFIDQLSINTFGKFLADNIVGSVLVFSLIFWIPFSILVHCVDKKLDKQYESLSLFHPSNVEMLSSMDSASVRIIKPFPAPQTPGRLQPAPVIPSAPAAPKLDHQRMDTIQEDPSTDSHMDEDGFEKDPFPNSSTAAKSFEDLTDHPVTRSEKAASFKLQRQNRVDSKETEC

[7] = Cytotoxicity HEK293; format: cell-based; settings: human
Method: as §1

[8] = target: MMP-3 (Homo sapiens, UniProt P08254); test: Selectivity against human off-targets: MMP-3; format: biochemical; settings: at 100 μM; read-out: Inhibition [%] MMP-3
Chain of MMP-3 (P08254 100-477): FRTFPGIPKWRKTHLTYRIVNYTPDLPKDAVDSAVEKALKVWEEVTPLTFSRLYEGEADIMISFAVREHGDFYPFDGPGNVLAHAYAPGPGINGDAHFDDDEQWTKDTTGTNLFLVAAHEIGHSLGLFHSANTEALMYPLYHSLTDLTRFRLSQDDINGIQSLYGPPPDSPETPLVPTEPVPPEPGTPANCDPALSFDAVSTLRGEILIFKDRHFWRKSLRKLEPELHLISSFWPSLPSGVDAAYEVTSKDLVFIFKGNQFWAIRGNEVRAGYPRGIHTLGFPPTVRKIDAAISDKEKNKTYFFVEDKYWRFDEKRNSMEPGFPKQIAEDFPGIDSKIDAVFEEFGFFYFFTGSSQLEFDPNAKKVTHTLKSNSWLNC
Text: as §2

[9] = test system: P. aeruginosa PA14; test: PA14 inhibition (MIC, antibacterial effect); format: cell-based; settings: Pseudomonas aeruginosa, PA14; read-out: MIC PA14
Method: as §1

[10] = target: MMP-8 (Homo sapiens, UniProt P22894); test: Selectivity against human off-targets: MMP-8; format: biochemical; settings: at 100 μM; read-out: Inhibition [%] MMP-8
Chain of MMP-8 (P22894 101-467): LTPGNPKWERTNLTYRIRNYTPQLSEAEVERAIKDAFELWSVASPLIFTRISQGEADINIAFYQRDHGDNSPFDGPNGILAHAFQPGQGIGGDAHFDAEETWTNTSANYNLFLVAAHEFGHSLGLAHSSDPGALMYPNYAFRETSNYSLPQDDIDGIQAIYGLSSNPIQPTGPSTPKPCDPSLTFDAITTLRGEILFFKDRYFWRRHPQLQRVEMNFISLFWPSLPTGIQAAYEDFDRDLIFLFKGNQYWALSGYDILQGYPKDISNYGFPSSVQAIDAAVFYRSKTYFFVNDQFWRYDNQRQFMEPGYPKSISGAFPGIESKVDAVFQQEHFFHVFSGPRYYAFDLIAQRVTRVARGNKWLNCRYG
Text: as §2

Compound `CC(C)CC(C(=O)N[C@H](C(=O)Nc1ccc(Cl)c(Cl)c1)C(C)C)P(=O)(O)O` (mixture of isomers) [Example 152, (1-(((S)-1-((3,4-Dichlorophenyl)amino)-3-methyl-1-oxobutan-2-yl)amino)-4-methyl-1-oxopentan-2-yl)phosphonic acid] has an IC50 ([1]; A549) greater than 100000 nM, an IC50 ([2]; HepG2) greater than 100000 nM and an inhibition at 100 µM [3] of 7 ± 9%. It also gave an inhibition at 100 µM [4] of 13 ± 1%, an IC50 ([5]; IC50 against LasB) of 5.1 ± 0.2 nM and an IC50 [6] greater than 100000 nM. It also gave an IC50 ([7]; HEK293) greater than 100000 nM, an inhibition at 100 µM [8] of less than 10% and an MIC [9] greater than 100 µM.
`CC(C)CC(C(=O)N[C@H](c1nc2cc(Oc3ccccc3)ccc2[nH]1)C(C)C)P(=O)(O)O` (mixture of isomers) [Example 172, (4-Methyl-1-(((S)-2-methyl-1-(5-phenoxy-1H-benzo[d]imidazol-2-yl)propyl)amino)-1-oxopentan-2-yl)phosphonic acid] showed an IC50 ([1]; A549) greater than 100000 nM, an IC50 ([2]; HepG2) greater than 100000 nM and an inhibition at 100 µM [3] of 12 ± 2%. For the same compound, the inhibition at 100 µM [4] was 18 ± 4%, the IC50 ([5]; IC50 against LasB (Table 16), heteropentacycles and benzannulated heteropentacycles) was 12000 ± 1000 nM and the inhibition at 100 µM ([6]; at 100 μM) was less than 10%. The IC50 ([7]; HEK293) was greater than 100000 nM, the inhibition at 100 µM [8] was 18 ± 5% and the MIC [9] was greater than 100 µM.
For `O=C(Nc1ccc(O)cc1)C(S)Cc1ccccc1` (centres unmarked) [Example 5], the IC50 ([1]; A549) was greater than 100000 nM, the IC50 ([2]; HepG2) was greater than 100000 nM and the inhibition at 100 µM [10] was 19 ± 4%. For the same compound, the IC50 ([5]; IC50 against LasB) was 590 ± 40 nM, the IC50 [6] was 2300 ± 1400 nM and the IC50 ([7]; HEK293) was greater than 100000 nM.
In the case of `Cc1ccc(NC(=O)C(S)Cc2ccccc2)cc1` (centres unmarked) [Example 8], the IC50 ([5]; read-out: IC50 against LasB) is reported as 480 ± 40 nM and the IC50 [6] is reported as 4800 ± 1200 nM.
In the case of `CC(C)CC(C(=O)Nc1ccc(-c2ccc(Cl)cc2)nc1)P(=O)(O)O` (centres unmarked) [Example 92], the IC50 ([1]; A549 cells) is reported as greater than 100000 nM, the IC50 ([2]; HepG2 cells) is reported as greater than 100000 nM and the inhibition at 100 µM [3] is reported as 18%. It also gave an inhibition at 100 µM [4] of less than 10%, an IC50 ([7]; HEK293 cells) greater than 100000 nM and an inhibition at 100 µM [8] of less than 10%. The MIC [9] was greater than 100 µM.
Work on `CC(C)CC(C(=O)Nc1ccc(NS(=O)(=O)c2ccc(Cl)c(Cl)c2)cc1)P(=O)(O)O` (centres unmarked) [Example 108, (1-((4-((3,4-Dichlorophenyl)sulfonamido)phenyl)amino)-4-methyl-1-oxopentan-2-yl)phosphonic acid] yielded an IC50 ([1]; A549 cells) greater than 100000 nM, an IC50 ([2]; HepG2 cells) greater than 100000 nM and an inhibition at 100 µM [3] of less than 10%. The inhibition at 100 µM [4] was 12 ± 1%, the IC50 ([7]; HEK293 cells) was greater than 100000 nM and the inhibition at 100 µM [8] was less than 10%. It also gave an MIC [9] greater than 100 µM.
`CC(C)CC(C(=O)N[C@H](C(=O)Nc1ccc(Cl)c(Cl)c1)C1CCCCC1)P(=O)(O)O` (some centres unmarked) [Example 156] gave an IC50 ([5]; IC50 against LasB) of 12 nM.
Work on `CC(C)CC(C(=O)N[C@@H](Cc1ccccc1)C(=O)Nc1ccc(Cl)c(Cl)c1)P(=O)(O)O` (some centres unmarked) [Example 157] yielded an IC50 ([5]; IC50 against LasB) of 427 ± 48 nM.
`CC(C)CC(C(=O)N[C@@H](CC1CCCCC1)C(=O)Nc1ccc(Cl)c(Cl)c1)P(=O)(O)O` (some centres unmarked) [Example 158] showed an IC50 ([5]; IC50 against LasB) of 242 ± 21 nM.
Compound `CC(C)C[C@@H](C(=O)N[C@@H](Cc1cccnc1)C(=O)Nc1ccc(Cl)c(Cl)c1)P(=O)(O)O` [Example 159] has an IC50 ([5]; IC50 against LasB) of 1500 ± 60 nM.
Work on `CC(C)C[C@H](C(=O)N[C@@H](Cc1cccnc1)C(=O)Nc1ccc(Cl)c(Cl)c1)P(=O)(O)O` [Example 160] yielded an IC50 ([5]; IC50 against LasB) of 573 ± 16 nM.
`CC(C)C[C@@H](C(=O)N[C@@H](Cc1ccccn1)C(=O)Nc1ccc(Cl)c(Cl)c1)P(=O)(O)O` [Example 161] showed an IC50 ([5]; IC50 against LasB) of 1360 ± 50 nM.
`CC(C)C[C@H](C(=O)N[C@@H](Cc1ccccn1)C(=O)Nc1ccc(Cl)c(Cl)c1)P(=O)(O)O` [Example 162] gave an IC50 ([5]; IC50 against LasB) of 416 ± 23 nM.
